# Source: US9550793B2, “Spirocyclic compounds, compositions and medicinal applications thereof” (Advinus Therapeutics Limited, priority 2012, dated 2017)
# pIC50: −log10 of the molar value.
# Molecular target: T1, hDGAT1 (Homo sapiens, UniProt O75907)
# T1 construct: endogenous in cells; host or cells: HEK293H cells
# T1 sequence (O75907 1-488): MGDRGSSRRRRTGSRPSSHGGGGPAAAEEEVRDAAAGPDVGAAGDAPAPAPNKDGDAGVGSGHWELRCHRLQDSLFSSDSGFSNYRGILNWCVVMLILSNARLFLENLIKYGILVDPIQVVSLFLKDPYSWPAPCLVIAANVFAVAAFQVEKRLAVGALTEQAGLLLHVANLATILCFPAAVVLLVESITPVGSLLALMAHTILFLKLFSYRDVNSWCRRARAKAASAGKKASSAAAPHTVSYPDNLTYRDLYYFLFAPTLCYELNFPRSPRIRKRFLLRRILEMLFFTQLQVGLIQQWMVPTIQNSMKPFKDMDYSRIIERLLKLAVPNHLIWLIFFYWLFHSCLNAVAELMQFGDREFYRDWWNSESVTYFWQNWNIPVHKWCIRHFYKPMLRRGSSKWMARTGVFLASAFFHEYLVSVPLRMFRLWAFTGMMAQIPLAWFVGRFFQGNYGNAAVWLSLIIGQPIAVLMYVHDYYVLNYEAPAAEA
# Assay: Cell based hDGAT1 inhibitory activity in HEK293H cells (13C-oleic acid to triolein, LC-MS)
# Settings: not given
# Experimental: Measurement of Cell Based hDGAT1 Inhibitory Activity:
# HEK293H cells were seeded in a 96-well poly-D-lysine plate at a density of 80000 cells per well. Following day, cells were washed with assay buffer-DMEM high glucose supplemented with 25 mM Hepes (pH7.5) carrying 0.25% fatty acid-free bovine serum. The cells were starved in assay buffer at 37° C./5% CO2 followed by removal of media and treatment with appropriate concentrations of the test compound at a final concentration of 0.2% DMSO for 20 min. 13C-Oleic acid pre-complexed with BSA (300 uM) was added and cells were incubated further at […]/5% CO2 for 120 min. The supernatant was removed and the cells were allowed to air dry briefly. The extraction solvent (90% isopropyl alcohol and 10% tetrahydrofuran with 20 nM of the internal standard [1,3-di-heptadecanoyl-2-(10Z-heptadecanoyl)-sn-glycerol-d5) was added to the cells, and allowed to shake at room temperature for 15 min. The extract was then transferred to glass vials for LC-MS analysis. An Applied Biosystems API3200 LC/MS system interfaced with a triplequadrupole mass spectrophotometer through a Turbo ion spray source was employed for the LC separation of the analytes using a Hi-Purity ADVANCE column eluted with 10 mM ammonium formate in IPA-H2O (80:20) at a flow rate of 0.4 mL/min. A characteristic in-source fragment ion m/z 639.7 formed from the precursor ion ^13C-54-triolein (m/z 956.8, ammonium adduct) at a collision energy of 30 and declustering potential 70 was monitored. IC50 values of the compounds were determined based on percent inhibition calculated on the basis of area ratio of product (TG) and internal standard (IS).
row,SMILES,pIC50
1,"COC(=O)C1CC2(CCC(c3ccc(NC(=O)c4nnc(Nc5ccc(F)c(F)c5)o4)cc3)CC2)C1 (centres unmarked) [Example A9, methyl 7-[4-[[5-(3,4-difluoroanilino)-1,3,4-oxadiazole-2-carbonyl]amino]phenyl]spiro[3.5]nonane-2-carboxylate]",7.51
2,"CCOC(=O)C1CC2(CCN(c3ccc(NC(=O)c4nnc(Nc5ccc(F)c(F)c5)o4)cn3)CC2)C1 [Example A12, ethyl 7-[5-[[5-(3,4-difluoroanilino)-1,3,4-oxadiazole-2-carbonyl]amino]-2-pyridyl]-7-azaspiro[3.5]nonane-2-carboxylate]",7.66
3,"O=C(Nc1ccc(N2CCC3(CC2)CC(C(=O)O)C3)nc1)c1nnc(Nc2ccc(OCC(F)(F)F)nc2)o1 [Example B13, 7-[5-[[5-[[6-(2,2,2-trifluoroethoxy)-3-pyridyl]amino]-1,3,4-oxadiazole-2-carbonyl]amino]-2-pyridyl]-7-azaspiro[3.5]nonane-2-carboxylic acid]",7.33
4,"O=C(Nc1ccc(C2CCC3(CC2)CC3C(=O)O)cc1)c1nnc(Nc2ccc(F)c(F)c2)o1 (centres unmarked) [Example B14, 6-[4-[[5-(3,4-difluoroanilino)-1,3,4-oxadiazole-2-carbonyl]amino]phenyl] spiro [2.5] octane-2-carboxylic acid]",7.68
5,"O=C(Nc1ccc(C2CCC3(CC2)CC3C(=O)O)cc1)c1nnc(Nc2ccc(OCC(F)(F)F)nc2)o1 (centres unmarked) [Example B15, 6-[4-[[5-[[6-(2,2,-trifluoroethoxy)-3-pyridyl]amino]-1,3,4-oxadiazole-2-carbonyl]amino]phenyl] spiro [2.5] octane-2-carboxylic acid]",8.00
6,"O=C(Nc1ccc(C2CCC3(CC2)CC3C(=O)O)cc1)c1nnc(Nc2cccc(Cl)c2)o1 (centres unmarked) [Example B16, 6-[4-[[5-(3-chloroanilino)-1,3,4-oxadiazole-2-carbonyl]amino]phenyl] spiro [2.5] octane-2-carboxylic acid]",7.80
7,"O=C(Nc1ccc(N2CCC3(CC2)CC3C(=O)O)nc1)c1nnc(Nc2ccc(OCC(F)(F)F)nc2)o1 (centres unmarked) [Example B21, 6-[5-[[5-[[6-(2,2,2-trifluoroethoxy)-3-pyridyl]amino]-1,3,4-oxadiazole-2-carbonyl]amino]-2-pyridyl]-6-azaspiro [2.5] octane-2-carboxylic acid]",7.19
8,"O=C(Nc1ccc(N2C3CCC2CC2(CC(C(=O)O)C2)C3)nc1)c1nnc(Nc2ccc(F)c(F)c2)o1 (centres unmarked) [Example B31, 8-[5-[[5-(3,4-difluoroanilino)-1,3,4-oxadiazole-2-carbonyl]amino]-2-pyridyl] spiro [8-azabicyclo [3.2.1]octane-3,3′-cyclobutane]-1′-carboxylic acid]",7.43

# Same assay, conditions: HEK293-H, 1 uM
row,SMILES,inhibition at 1 µM
1,"O=C(Nc1ccc([C@H]2CC[C@]3(CC2)CC3C(=O)O)nc1)c1nnc(Nc2ccccc2)o1 (stereo partly drawn) [Example B24, Trans-6-[5-[(5-anilino-1,3,4-oxadiazole-2-carbonyl)amino]-2-pyridyl] spiro [2.5] octane-2-carboxylic acid]",49%
2,"O=C(Nc1ccc([C@H]2CC[C@]3(CC2)CC3C(=O)O)nc1)c1nnc(Nc2ccc(F)c(F)c2)o1 (stereo partly drawn) [Example B26, Trans-6-[5-[[5-(3,4-difluoroanilino)-1,3,4-oxadiazole-2-carbonyl]amino]-2-pyridyl] spiro [2.5] octane-2-carboxylic acid]",37%
3,"O=C(Nc1ccc(N2CCC3(CC2)CC(C(=O)N2CCCC2)C3)nc1)c1nnc(Nc2ccc(F)c(F)c2)o1 [Example C1, 5-(3,4-difluoroanilino)-N-[6-[2-(pyrrolidine-1-carbonyl)-7-azaspiro[3.5]nonan-7-yl]-3-pyridyl]-1,3,4-oxadiazole-2-carboxamide]",86%
4,CC1CCCCN1C(=O)C1CC2(CCN(c3ccc(NC(=O)c4nnc(Nc5ccc(F)c(F)c5)o4)cn3)CC2)C1 (centres unmarked) [Example C2],88%
5,O=C(Nc1ccc(N2CCC3(CC2)CC(C(=O)N2CCOCC2)C3)nc1)c1nnc(Nc2ccc(F)c(F)c2)o1 [Example C3],84%
6,O=C(Nc1ccc(N2CCC3(CC2)CC(C(=O)NCC(F)(F)F)C3)nc1)c1nnc(Nc2ccc(F)c(F)c2)o1 [Example C4],84%
